Results taken from US20220133688A1, “MACROCYCLIC LACTONE ANTHELMINTICS AGAINST NEMATODES” (Bayer Animal Health GmbH, priority 2019, published 2022).
Where “and” joins values, the source holds several entries; their conditions need not be identical. Equal entries are not always repeated. Where two headings read alike, the source gives them in different places.

What was measured:
[1] = system: D. immitis Mf, Yazoo-2013 strain (resistant); assay: Cell attachment assay (canine PMN or PBMC attachment to Mf), Yazoo-2013 isolate; type: cell-based, Dirofilaria immitis
[2] = system: D. immitis Mf, Metairie-2014 strain (resistant); assay: Cell attachment assay (canine PMN or PBMC attachment to Mf), Metairie-2014 isolate; type: cell-based, Dirofilaria immitis; settings: for lowest drug concentration at which a statistically significant increase (p = <0.05) in cell attachment was observed compared to the no-drug control: 2-way ANOVA

Row | Compound | Percentage (±SEM) of Mf with cells attached [1] | drug concentration causing a significant increase in cell attachment [1] [nM] | lowest drug concentration at which a statistically significant increase (p = <0.05) in cell attachment was observed compared to the no-drug control [1] [nM] | Percentage (±SEM) of Mf with cells attached [2] | drug concentration required for a significant increase in cell attachment [2] [µM] | increase in attachment of PBMCs at any concentration [2] | Percentage (±SEM) of Mf with cells attached ([1]; PBMC, 1 μM drug, Yazoo-2013 Mf) [%] | lowest drug concentration at which a statistically significant increase (p = <0.05) in cell attachment was observed compared to the no-drug control ([1]; PBMC, 40 h, Yazoo-2013 Mf, 2-way ANOVA) [nM] | Percentage (±SEM) of Mf with cells attached ([1]; PMN, 1 μM drug, Yazoo-2013 Mf) [%] | lowest drug concentration at which a statistically significant increase (p = <0.05) in cell attachment was observed compared to the no-drug control ([1]; PMN, 24 h, Yazoo-2013 Mf, 2-way ANOVA) [nM] | drug concentration causing a significant increase in cell attachment ([1]; PMNs and PBMCs, Yazoo-2013 Mf) [nM] | Percentage (±SEM) of Mf with cells attached ([2]; PBMC, 1 μM drug, Metairie-2014 Mf) [%] | lowest drug concentration at which a statistically significant increase (p = <0.05) in cell attachment was observed compared to the no-drug control ([2]; PBMC, 40 h, Metairie-2014 Mf) [nM] | Percentage (±SEM) of Mf with cells attached ([2]; PMN, 1 μM drug, Metairie-2014 Mf) [%] | lowest drug concentration at which a statistically significant increase (p = <0.05) in cell attachment was observed compared to the no-drug control ([2]; PMN, 24 h, Metairie-2014 Mf) [nM]
1 | CC[C@H](C)[C@H]1O[C@]2(CC[C@@H]1C)C[C@@H]1C[C@@H](C/C=C(\C)[C@@H](O[C@H]3C[C@H](OC)[C@@H](O[C@H]4C[C@H](OC)[C@@H](O)[C@H](C)O4)[C@H](C)O3)[C@@H](C)/C=C/C=C3\CO[C@@H]4[C@H](O)C(C)=C[C@@H](C(=O)O1)[C@]34O)O2 [IVM, ivermectin] | 25 ± 5% and 18 ± 4% | 100 to 300 | 100 | 13% and 10% and 13 ± 3% and 10 ± 2% | ≥ 1 | no significant increase | – | – | – | – | – | – | – | – | –
2 | CO/N=C1\C[C@]2(C[C@@H]3C[C@@H](C/C=C(\C)C[C@@H](C)/C=C/C=C4\CO[C@@H]5[C@H](O)C(C)=C[C@@H](C(=O)O3)[C@]45O)O2)O[C@H](/C(C)=C/C(C)C)[C@H]1C [MOX, moxidectin] | – | – | – | – | – | – | 19 ± 3 | 10 | 28 ± 5 | 3 | 3 to 10 | 49 ± 8 | 1 | 42 ± 6 | 10
